From US10370718B2, “Use of HLA genetic status to assess or select treatment of celiac disease” (ImmusanT, Inc., priority 2014, dated 2019) come the findings set out here.

The test has as its system circulating cytokines. Description: Circulating cytokines/chemokines in plasma after dosing (MAGPIX multiplex platform). The format is in vivo, human. Conditions: dose of 150 micrograms; same dose in both genotype groups. The procedure:
3 cohorts of subjects with HLA-DQ2.5+(heterozygous or homozygous) biopsy-proven Celiac disease on a gluten-free diet for at least 1 year were included in the study. The first cohort (Cohort 1) contained 12 subjects who were dosed with 150 mcg of a gluten peptide composition (an equimolar composition in sodium chloride 0.9% USP of 3 peptides: ELQPFPQPELPYPQPQ (SEQ ID NO: 9), EQPFPQPEQPFPWQP (SEQ ID NO: 10), and EPEQPIPEQPQPYPQQ (SEQ ID NO: 11), each peptide comprising an N-terminal pyroglutamate and C-terminal amidated amino acid) or a placebo (sodium chloride 0.9% USP) intradermally, twice a week for 8 weeks total. The second cohort (Cohort 2) contained 13 subjects who were dosed with 300 mcg of the gluten peptide composition or the placebo intradermally, twice a week for 8 weeks total. […] Both Cohorts 1 and 2 received an oral gluten challenge and were assessed for gamma-interferon (gIFN) release and then returned to baseline prior to starting the treatment regimen. […]
The progress of each subject before, during and after the trial was assessed using multiple tests including serology (tTG-IgA, DGP-IgG, DGP-IgA, and EMA-IgA), histology, and IFNg whole blood release assay, and cytokine/chemokines in plasma (measured by MAGPIX® multiplex platform). Plasma cytokines and chemokines were measured at several timepoints pre and post first and last dose. […]

Square brackets hold non-standard residues; d marks the D form. pGlu = O=C1CC[C@@H](C(=O)O)N1

As to “gluten peptide composition: equimolar composition in sodium chloride 0.9% USP of 3 peptides (SEQ ID NO: 9, 10, 11), each with N-terminal pyroglutamate and C-terminal amidated amino acid (chain 1 [pGlu]LQPFPQPELPYPQPQ-NH2; chain 2 [pGlu]QPFPQPEQPFPWQP-NH2; chain 3 [pGlu]PEQPIPEQPQPYPQQ-NH2)”, the “levels of circulating cytokines in response to administration, HLA-DQ2.5 homozygous subjects compared to subjects with other genotypes” value was “generally increased levels of circulating cytokines”.
